Like-named read-outs stand apart in the source and are kept apart here.
Experiment: Evaluation on solubility with respect to solvent
Assay type: physicochemical
Conditions: organic solvent or mixture, thermodynamic from solid, stirred for one hour, visually checked
Method: Here, Compound (C) is a specific non-charge transporting compound which is not the specific position isomer mixture.
First, the Exemplary compounds and Compound (C) are respectively dissolved in tetrahydrofuran, and solubility of the solution is evaluated as follows.
1 g of Compound (C) is added to 10 ml of tetrahydrofuran at 20° C., the mixture is stirred for one hour, and solubility thereof is visually checked. A case where Compound (C) is dissolved is evaluated as A, a case where an insoluble part is slightly observed is evaluated as B, and a case where the solution yields white turbidity is evaluated as C.
In addition, solubility thereof when the solvent is changed from tetrahydrofuran to toluene, xylene, dichloroethane, chloroform, and butyl acetate is evaluated.

solubility at 1 h (1 g added to 10 ml of butyl acetate at 20° C., read-out: Evaluation on solubility Butyl acetate): < 100 mg/mL
solubility at 1 h (1 g added to 10 ml of chloroform at 20° C., read-out: Evaluation on solubility Chloroform): > 100 mg/mL
solubility at 1 h (1 g added to 10 ml of dichloroethane at 20° C., read-out: Evaluation on solubility Dichloroethane): > 100 mg/mL
solubility at 1 h (1 g added to 10 ml of tetrahydrofuran at 20° C., read-out: Evaluation on solubility Tetrahydrofuran): > 100 mg/mL
solubility at 1 h (1 g added to 10 ml of toluene at 20° C., read-out: Evaluation on solubility Toluene): < 100 mg/mL
solubility at 1 h (1 g added to 10 ml of xylene at 20° C., read-out: Evaluation on solubility Xylene): < 100 mg/mL
SMILES: C=Cc1ccc(COc2ccc(C(C)(c3ccc(OCc4ccc(C=C)cc4)cc3)c3ccc(OCc4ccc(C=C)cc4)cc3)cc2)cc1 [Compound (C)]

— US8900783B2, “Electrophotographic photoreceptor, process cartridge, and image forming apparatus” (Fuji Xerox Co., Ltd., priority 2013, dated 2014)
